Laboratory results published in patent US8148370B2, “Polysubstituted derivatives of 2-aryl-6-phenyl-imidazo[1,2-a]pyridines, and preparation and therapeutic use thereof” (Sanofi-Aventis, priority 2008, dated 2012).

Assays:
mouse Nurr1 receptor = target: T1, mouse Nurr1 receptor (Mus musculus, UniProt Q06219); test: Evaluation of the in vitro activity on N2A cells (NBRE-luciferase reporter); assay type: cell-based; conditions: N2A (Neuro-2A) cells stably transfected with 8NBRE-luciferase; products incubated 24 hours; luminescence
T1 construct: endogenously expressing the mouse Nurr1 receptor; host or cells: Neuro-2A (N2A) mouse neuroblastoma cells stably transfected with 8NBRE-luciferase
T1 sequence (Q06219 whole entry): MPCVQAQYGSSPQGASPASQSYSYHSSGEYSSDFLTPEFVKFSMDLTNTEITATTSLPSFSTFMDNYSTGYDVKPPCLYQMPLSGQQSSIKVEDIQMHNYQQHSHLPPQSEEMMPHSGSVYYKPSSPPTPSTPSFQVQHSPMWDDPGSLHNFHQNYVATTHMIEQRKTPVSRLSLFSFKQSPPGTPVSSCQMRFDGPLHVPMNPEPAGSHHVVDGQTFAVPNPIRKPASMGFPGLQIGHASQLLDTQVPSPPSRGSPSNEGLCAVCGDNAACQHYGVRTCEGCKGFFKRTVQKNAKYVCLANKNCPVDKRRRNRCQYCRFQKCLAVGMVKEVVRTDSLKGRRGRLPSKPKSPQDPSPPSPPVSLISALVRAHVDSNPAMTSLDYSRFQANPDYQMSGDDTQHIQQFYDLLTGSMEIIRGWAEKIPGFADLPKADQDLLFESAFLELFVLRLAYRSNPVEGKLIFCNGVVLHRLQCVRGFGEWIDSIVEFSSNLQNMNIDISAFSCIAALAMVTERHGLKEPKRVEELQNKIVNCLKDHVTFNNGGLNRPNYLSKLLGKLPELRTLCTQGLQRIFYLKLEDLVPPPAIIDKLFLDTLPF
Method: The compounds according to the invention have formed the subject of pharmacological assays which make it possible to determine their modulatory effect on NOT. Evaluation of the In Vitro Activity on N2A Cells The activity of the compounds according to the invention was evaluated on a cell line (N2A) endogenously expressing the mouse Nurr1 receptor and stably transfected with the NOT binding response element (NBRE) coupled to the luciferase reporter gene. The EC50 values are between 0.01 and 10 μM. The assays were carried out according to the procedure described below. The Neuro-2A cell line comes from a standard commercial source (ATCC). The Neuro-2A clone was obtained, from a spontaneous tumour originating from an A albino mouse strain, by R. J Klebe et al. This Neuro-2A line is subsequently stably transfected with 8NBRE-luciferase. The N2A-8NBRE cells are cultured until confluence in 75 cm^2 culture flasks containing DMEM supplemented with 10% of foetal calf serum, 4.5 g/l of glucose and 0.4 mg/ml of geneticin. After a week of culture, the cells are recovered with 0.25% trypsin for 30 seconds and then resuspended in DMEM without phenol red, containing 4.5 g/l of glucose and 10% of Hyclone delipidized serum, and deposited into transparent-bottom 96-well white plates. The cells are deposited at a rate of 60 000 per well in 75 μl for 24 hours before the addition of the products. The products are applied in 25 μl and incubated for a further 24 hours. On the day of the measurement, an equivalent volume (100 μl) of Steadylite is added to each well and then left for a period of 30 minutes in order to obtain complete cell lysis and maximum signal production. The plates are subsequently measured in a luminescence counter for microplates after having been sealed with an adhesive film. The products are prepared in the form of a stock solution at 10^−2M and then diluted in 100% of DMSO. Each product concentration is prediluted in culture medium before incubation with the cells, thus containing 0.625% final concentration of DMSO. […] It is thus apparent that the compounds according to the invention have a modulatory effect on NOT.

Compound | melting point | EC50 (mouse Nurr1 receptor)
CC(O)c1cccc(-c2ccc3nc(-c4ccc(Cl)cc4)cn3c2)c1F (centres unmarked) [Compound 2, 1-{3-[2-(4-Chlorophenyl)imidazo[1,2-a]pyridin-6-yl]-2-fluorophenyl}ethanol] | 193 to 195 °C | 
COCc1c(F)ccc(-c2ccc3nc(-c4ccc(C)cc4)cn3c2)c1F [Compound 37, 6-(2,4-Difluoro-3-methoxymethylphenyl)-2-(p-tolyl)imidazo[1,2-a]pyridine] |  | 74 nM
OC1CCCc2ccc(-c3ccc4nc(-c5ccc(Cl)cc5)cn4c3)cc21 (centres unmarked) [Compound 8, 7-[2-(4-Chlorophenyl)imidazo[1,2-a]pyridin-6-yl]-1,2,3,4-tetrahydronaphth-1-ol] |  | 42 nM
OCc1c(F)ccc(-c2ccc3nc(-c4cccc(Br)c4)cn3c2)c1F [Compound 42, {3-[2-(3-Bromophenyl)imidazo[1,2-a]pyridin-6-yl]-2,6-difluorophenyl}methanol] |  | 1 nM
O=[N+]([O-])c1ccc(-c2cn3cc(-c4cccc(F)c4CO)ccc3n2)cc1 [Compound 38, {2-Fluoro-6-[2-(4-nitrophenyl)imidazo[1,2-a]pyridin-6-yl]phenyl}methanol] |  | 211 nM

More lines, in order of falling EC50 (mouse Nurr1 receptor), values ahead:

melting point | EC50 (mouse Nurr1 receptor) | Compound
 | 93 nM | COc1cccc(-c2cn3cc(-c4ccc(CO)c(F)c4)ccc3n2)c1 [Compound 17, {2-Fluoro-4-[2-(3-methoxyphenyl)imidazo[1,2-a]pyridin-6-yl]phenyl}methanol]
 | 25 nM | COc1cccc(-c2cn3cc(-c4cc(C(C)(C)O)ccc4F)ccc3n2)c1 [Compound 33, 2-{4-Fluoro-3-[2-(3-methoxyphenyl)imidazo[1,2-a]pyridin-6-yl]phenyl}propan-2-ol]
 | 7.5 nM | OCc1cc(-c2ccc3nc(-c4ccc(Cl)cc4)cn3c2)ccc1F [Compound 11, {5-[2-(4-Chlorophenyl)imidazo[1,2-a]pyridin-6-yl]-2-fluorophenyl}methanol]
214 to 216 °C | 0.5 nM | OCc1c(F)ccc(-c2ccc3nc(-c4ccc(Cl)cc4)cn3c2)c1F [Compound 3, {3-[2-(4-Chlorophenyl)imidazo[1,2-a]pyridin-6-yl]-2,6-difluorophenyl}methanol]
 | 0.1 nM | CC(O)c1ccc(F)c(-c2ccc3nc(-c4ccc(Cl)cc4)cn3c2)c1 (single isomer, unassigned; (+)) [Compound 29, (+)-1-{3-[2-(4-Chlorophenyl)imidazo[1,2-a]pyridin-6-yl]-4-fluorophenyl}ethanol]
